Test results reported in patent publication US20260317356A1, “SMALL MOLECULE MODULATORS OF OGG1” (AZKARRA THERAPEUTICS, INC., priority 2023, published 2026).

Target: hOGG1 (Homo sapiens, UniProt O15527)
Assay: Biochemical fluorescence assay to measure enzymatic activity of hOGG1 (OGG1/APEX IC50)
Parameters: Protein His-hOGG1 (12-323) was prepared; His (N); host or cells: E. coli
Settings: 1 nM OGG1+2 nM APEX+6 nM dsDNA (8-oxo-dG substrate); pH 7.5; RT 40 min; read-out: OGG1/APEX IC50
Outline: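 Coupled glycosylase/AP-endonuclease read-out: 8-oxo-dG-containing dsDNA (6 nM) cleaved by 1 nM His-hOGG1 (12-323) plus 2 nM APEX1 over 40 min at room temperature, after 20 min enzyme–compound preincubation; buffer 20 mM Tris pH 7.5, 100 mM KCl, 0.1% BSA, 0.01% Tween. IC50 comes from sigmoidal 3-parameter fitting of % inhibition derived from TAMRA signal.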

Chain of hOGG1 (O15527 12-323): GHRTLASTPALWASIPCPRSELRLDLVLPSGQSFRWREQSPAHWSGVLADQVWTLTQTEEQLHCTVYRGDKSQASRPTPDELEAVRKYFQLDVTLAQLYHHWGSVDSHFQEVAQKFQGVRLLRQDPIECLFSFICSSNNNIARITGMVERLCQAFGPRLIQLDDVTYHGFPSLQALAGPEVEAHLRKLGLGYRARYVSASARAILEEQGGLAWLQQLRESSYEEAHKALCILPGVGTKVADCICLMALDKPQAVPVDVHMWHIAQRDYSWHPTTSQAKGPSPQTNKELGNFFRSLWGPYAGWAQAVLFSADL

SMILES	IC50
Cc1cccc2c1CN([C@H]1CC[C@@H](C(=O)Nc3cc4ccccc4[nH]3)CC1)C(=O)N2 [Example 112, (1s,4s)-N-(1H-indol-2-yl)-4-(5-methyl-2-oxo-1,2-dihydroquinazolin-3(4H)-yl)cyclohexanecarboxamide]	< 100 nM
COc1cc(NC(=O)[C@H]2CC[C@@H](N3Cc4c(C)cc(CN5CC[C@H](O)C5)cc4NC3=O)CC2)ccc1C (stereo in doubt) [Example 98, (1R,4s)-4-(7-(((S)-3-hydroxypyrrolidin-1-yl)methyl)-5-methyl-2-oxo-1,2-dihydroquinazolin-3(4H)-yl)-N-(3-methoxy-4-methylphenyl)cyclohexanecarboxamide]	< 100 nM
COc1cc(NC(=O)[C@H]2CC[C@@H](N3Cc4c(C)cc(OCCN(C)C)cc4OC3=O)CC2)ccc1C [Example 117, (1s,4s)-4-(7-(2-(dimethylamino)ethoxy)-5-methyl-2-oxo-2H-benzo[e][1,3]oxazin-3(4H)-yl)-N-(3-methoxy-4-methylphenyl)cyclohexane-1-carboxamide]	100 to 1000 nM
COc1cc(NC(=O)[C@H]2CC[C@@H](N3Cc4c(Br)cc(NCCN(C)C)cc4C3=O)CC2)ccc1C [Example 198, (1s,4s)-4-(4-Bromo-6-(2-(dimethylamino)ethylamino)-1-oxoisoindolin-2-yl)-N-(3-methoxy-4-methylphenyl)cyclohexanecarboxamide]	< 100 nM
COc1cc(NC(=O)[C@H]2CC[C@@H](N3Cc4c(C)cc(C(=O)NCCN(C)C)cc4NC3=O)CC2)ccc1C [Example 84, N-(2-(dimethylamino)ethyl)-3-((1s,4s)-4-(3-methoxy-4-methylphenylcarbamoyl)cyclohexyl)-5-methyl-2-oxo-1,2,3,4-tetrahydroquinazoline-7-carboxamide]	< 100 nM
COc1cc(NC(=O)[C@H]2CC[C@@H](N3Cc4c(C)cc(CNC(C)=O)cc4NC3=O)CC2)ccc1C [Example 27, (1s,4s)-4-(7-(Acetamidomethyl)-5-methyl-2-oxo-1,2-dihydroquinazolin-3(4H)-yl)-N-(3-methoxy-4-methylphenyl)cyclohexanecarboxamide]	< 100 nM
COc1cc(NC(=O)[C@H]2CC[C@@H](N3Cc4c(Br)cc(NC5COC5)cc4C3=O)CC2)ccc1C [Example 174, (1s,4s)-4-(4-Bromo-6-(oxetan-3-ylamino)-1-oxoisoindolin-2-yl)-N-(3-methoxy-4-methylphenyl)cyclohexanecarboxamide]	100 to 1000 nM
COc1cc(NC(=O)[C@H]2CC[C@@H](N3Cc4c(Br)ccnc4C3=O)CC2)ccc1C [Example 168, (1s,4s)-4-(4-Bromo-7-oxo-5H-pyrrolo[3,4-b]pyridin-6 (7H)-yl)-N-(3-methoxy-4-methylphenyl)cyclohexanecarboxamide]	100 to 1000 nM
COc1cc(NC(=O)[C@H]2CC[C@@H](N3C(=O)c4c(C)ccc(C)c4C3=O)CC2)ccc1C [Example 253, (1s,4s)-4-(4,7-Dimethyl-1,3-dioxoisoindolin-2-yl)-N-(3-methoxy-4-methylphenyl)cyclohexanecarboxamide]	100 to 1000 nM
CNCCOc1cc(C)c2c(c1)C(=O)N([C@H]1CC[C@@H](C(=O)Nc3ccc(C)c(OC)c3)CC1)C2 [Example 266, (1s,4s)-N-(3-Methoxy-4-methylphenyl)-4-(4-methyl-6-(2-(methylamino)ethoxy)-1-oxoisoindolin-2-yl)cyclohexanecarboxamide]	< 100 nM
COc1cc(NC(=O)[C@H]2CC[C@@H](N3Cc4c(ccc(OC)c4C)NC3=O)CC2)ccc1C [Example 51, (1s,4s)-N-(3-Methoxy-4-methylphenyl)-4-(6-methoxy-5-methyl-2-oxo-1,2-dihydroquinazolin-3(4H)-yl)cyclohexanecarboxamide]	100 to 1000 nM
COc1ccc(NC(=O)[C@H]2CC[C@@H](N3Cc4c(C)cccc4C3=O)CC2)cc1Cl [Example 238, (1s,4s)-N-(3-Chloro-4-methoxyphenyl)-4-(4-methyl-1-oxoisoindolin-2-yl)cyclohexanecarboxamide]	100 to 1000 nM
COc1cc(NC(=O)[C@H]2CC[C@@H](N3Cc4c(Br)cc(NCC(C)O)cc4C3=O)CC2)ccc1C (some centres unmarked) [Example 179, (1s,4s)-4-(4-Bromo-6-(2-hydroxypropylamino)-1-oxoisoindolin-2-yl)-N-(3-methoxy-4-methylphenyl)cyclohexanecarboxamide]	100 to 1000 nM
Cc1cccc2c1CN([C@H]1CC[C@@H](C(=O)Nc3ccc4nc[nH]c4c3)CC1)C(=O)N2 [Example 109, (1s,4s)-N-(1H-benzo[d]imidazol-6-yl)-4-(5-methyl-2-oxo-1,2-dihydroquinazolin-3(4H)-yl)cyclohexanecarboxamide]	1000 to 10000 nM
COc1cc(NC(=O)[C@H]2CC[C@@H](N3Cc4c(Br)cncc4NC3=O)CC2)ccc1C [Example 91, (1s,4s)-4-(5-bromo-2-oxo-1,2-dihydropyrido[3,4-d]pyrimidin-3(4H)-yl)-N-(3-methoxy-4-methylphenyl)cyclohexanecarboxamide]	< 100 nM
Cc1cccc2c1CN([C@H]1CC[C@@H](C(=O)Nc3ccc4oncc4c3)CC1)C2=O [Example 275, (1s,4s)-N-(benzo[d]isoxazol-5-yl)-4-(4-methyl-1-oxoisoindolin-2-yl)cyclohexanecarboxamide]	100 to 1000 nM
CCc1ccc(NC(=O)[C@H]2CC[C@@H](N3Cc4c(C)cccc4NC3=O)CC2)cc1OC [Example 95, (1s,4s)-N-(4-ethyl-3-methoxyphenyl)-4-(5-methyl-2-oxo-1,2-dihydroquinazolin-3(4H)-yl)cyclohexanecarboxamide]	100 to 1000 nM
COc1cc(NC(=O)[C@H]2CC[C@@H](N3Cc4c(C)cc(C=O)cc4C3=O)CC2)ccc1C [Example 210, (1s,4s)-4-(6-Formyl-4-methyl-1-oxoisoindolin-2-yl)-N-(3-methoxy-4-methylphenyl)cyclohexanecarboxamide]	100 to 1000 nM
COc1cc(NC(=O)[C@H]2CC[C@@H](N3Cc4c(C)cc(NCC5CCCN5)cc4C3=O)CC2)ccc1C (some centres unmarked) [Example 194, (1s,4s)-N-(3-methoxy-4-methylphenyl)-4-(4-methyl-1-oxo-6-(pyrrolidin-2-ylmethylamino)isoindolin-2-yl)cyclohexanecarboxamide]	< 100 nM
COc1cc(NC(=O)[C@@H]2[C@@H]3C[C@@H](N4Cc5c(Br)cccc5C4=O)C[C@@H]32)ccc1C [Example 213, (1R,5S,6s)-3-(4-Bromo-1-oxoisoindolin-2-yl)-N-(3-methoxy-4-methylphenyl)bicyclo[3.1.0]hexane-6-carboxamide]	1000 to 10000 nM
O=C(Nc1ccc(I)cc1)N1CCC(N2Cc3c(Br)cccc3C2=O)CC1 [Example 182, 4-(4-Bromo-1-oxoisoindolin-2-yl)-N-(4-iodophenyl) piperidine-1-carboxamide]	> 10000 nM
CCc1ccc(NC(=O)[C@H]2CC[C@@H](N3Cc4c(C)cccc4C3=O)CC2)cc1OC [Example 123, (1s,4s)-N-(4-Ethyl-3-methoxyphenyl)-4-(4-methyl-1-oxoisoindolin-2-yl)cyclohexane-1-carboxamide]	100 to 1000 nM
COc1cc(NC(=O)[C@H]2CC[C@@H](N3Cc4c(C)cc(OCC5(F)CNC5)cc4C3=O)CC2)ccc1C [Example 141, (1s,4s)-4-(6-((3-Fluoroazetidin-3-yl)methoxy)-4-methyl-1-oxoisoindolin-2-yl)-N-(3-methoxy-4-methylphenyl)cyclohexanecarboxamide]	< 100 nM
